Converted amounts (≈) assume the structure as drawn.
How the values were obtained:
[1] = system: Streptococcus sp. 'group B'; assay: Antimicrobial activity against group B Streptococcus sp. 'group B' serotype IA isolate 3047-05 by broth dilution method; format: functional
[2] = system: Streptococcus sp. 'group B'; assay: Antimicrobial activity against group B Streptococcus sp. 'group B' serotype IA isolate 5662-05 by broth dilution method; format: functional
[3] = system: Streptococcus sp. 'group B'; assay: Antimicrobial activity against group B Streptococcus sp. 'group B' serotype III isolate 8607-03 expressing pbp2x Q557E mutant and harboring empty vector by broth dilution method; format: functional
[4] = system: Streptococcus sp. 'group B'; assay: Antimicrobial activity against group B Streptococcus sp. 'group B' serotype III isolate 7507-03 expressing pbp2x Q557E mutant and multilocus sequence type ST19 by broth dilution method; format: functional
[5] = system: Streptococcus sp. 'group B'; assay: Antimicrobial activity against group B Streptococcus sp. 'group B' serotype III isolate 7037-99 by broth dilution method; format: functional
[6] = system: Streptococcus sp. 'group B'; assay: Antimicrobial activity against group B Streptococcus sp. 'group B' serotype III isolate 3444-99 by broth dilution method; format: functional
[7] = system: Streptococcus sp. 'group B'; assay: Antimicrobial activity against group B Streptococcus sp. 'group B' serotype V isolate 9171-03 by broth dilution method; format: functional
[8] = system: Streptococcus sp. 'group B'; assay: Antimicrobial activity against group B Streptococcus sp. 'group B' serotype II isolate 3776-04 by broth dilution method; format: functional
[9] = system: Streptococcus sp. 'group B'; assay: Antimicrobial activity against group B Streptococcus sp. 'group B' serotype III isolate 8607-03 expressing pbp2x Q557E mutant and multilocus sequence type ST19 by broth dilution method; format: functional
[10] = system: Streptococcus sp. 'group B'; assay: Antimicrobial activity against group B Streptococcus sp. 'group B' serotype V isolate 3386-05 by broth dilution method; format: functional
[11] = system: Streptococcus sp. 'group B'; assay: Antimicrobial activity against group B Streptococcus sp. 'group B' serotype V isolate 4857-03 by broth dilution method; format: functional
[12] = system: Streptococcus sp. 'group B'; assay: Antimicrobial activity against group B Streptococcus sp. 'group B' serotype IA isolate 9012-04 by broth dilution method; format: functional
[13] = system: Streptococcus sp. 'group B'; assay: Antimicrobial activity against group B Streptococcus sp. 'group B' serotype IV isolate 3454-03 by broth dilution method; format: functional
[14] = system: Streptococcus sp. 'group B'; assay: Antimicrobial activity against group B Streptococcus sp. 'group B' serotype III isolate 8607-03 expressing pbp2x Q557E mutant and harboring plasmid expressing wild-type pbp2x by broth dilution method; format: functional
[15] = system: Streptococcus sp. 'group B'; assay: Antimicrobial activity against group B Streptococcus sp. 'group B' serotype IA isolate 6649-05 by broth dilution method; format: functional
[16] = system: Streptococcus sp. 'group B'; assay: Antimicrobial activity against group B Streptococcus sp. 'group B' serotype V isolate 5677-04 by broth dilution method; format: functional
[17] = system: Streptococcus sp. 'group B'; assay: Antimicrobial activity against group B Streptococcus sp. 'group B' serotype IB isolate 5436-03 by broth dilution method; format: functional
[18] = system: Streptococcus sp. 'group B'; assay: Antimicrobial activity against group B Streptococcus sp. 'group B' isolate 7368-04 by broth dilution method; format: functional
[19] = system: Streptococcus sp. 'group B'; assay: Antimicrobial activity against group B Streptococcus sp. 'group B' isolate 4214-03 by broth dilution method; format: functional
[20] = system: Streptococcus sp. 'group B'; assay: Antimicrobial activity against group B Streptococcus sp. 'group B' serotype II isolate 9051-04 by broth dilution method; format: functional
[21] = system: Streptococcus sp. 'group B'; assay: Antimicrobial activity against group B Streptococcus sp. 'group B' serotype IA isolate 7490-03 by broth dilution method; format: functional
[22] = system: Streptococcus sp. 'group B'; assay: Antimicrobial activity against group B Streptococcus sp. 'group B' isolate 6149-03 by broth dilution method; format: functional
[23] = system: Streptococcus sp. 'group B'; assay: Antimicrobial activity against group B Streptococcus sp. 'group B' serotype III isolate 6138-03 expressing pbp2x Q557E mutant and multilocus sequence type ST19 by broth dilution method; format: functional
[24] = system: Streptococcus sp. 'group B'; assay: Antimicrobial activity against group B Streptococcus sp. 'group B' serotype III isolate 3789-04 expressing pbp2x Q557E mutant and multilocus sequence type ST19 by broth dilution method; format: functional
[25] = system: Streptococcus sp. 'group B'; assay: Antimicrobial activity against group B Streptococcus sp. 'group B' serotype III isolate 8607 with chromosomal pbp2x(Q557E) replaced by wild-type pbp2x through allelic exchange by broth dilution method

SMILES	MIC [1] [µg/mL]	MIC [2] [µg/mL]	MIC [3] [µg/mL]	MIC [4] [µg/mL]	MIC [5] [µg/mL]	MIC [6] [µg/mL]	MIC [7] [µg/mL]	MIC [8] [µg/mL]	MIC [9] [µg/mL]	MIC [11] [µg/mL]	MIC [12] [µg/mL]	MIC [13] [µg/mL]	MIC [14] [µg/mL]	MIC [16] [µg/mL]	MIC [17] [µg/mL]	MIC [18] [µg/mL]	MIC [19] [µg/mL]	MIC [20] [µg/mL]	MIC [21] [µg/mL]	MIC [22] [µg/mL]	other results
CC1(C)S[C@@H]2[C@H](NC(=O)[C@H](N)c3ccccc3)C(=O)N2[C@H]1C(=O)O [AMPICILLIN]	0.12 (≈ 0.343 µM)	0.12 (≈ 0.343 µM)	0.06 (≈ 0.172 µM)	0.12 (≈ 0.343 µM)	0.12 (≈ 0.343 µM)	0.12 (≈ 0.343 µM)	0.12 (≈ 0.343 µM)	0.25 (≈ 0.715 µM)	0.06 (≈ 0.172 µM)	0.25 (≈ 0.715 µM)	0.06 (≈ 0.172 µM)	0.25 (≈ 0.715 µM)	0.06 (≈ 0.172 µM)	0.25 (≈ 0.715 µM)	0.06 (≈ 0.172 µM)	0.12 (≈ 0.343 µM)	0.25 (≈ 0.715 µM)	0.12 (≈ 0.343 µM)	0.12 (≈ 0.343 µM)	0.12 (≈ 0.343 µM)	MIC [10]: 0.06 µg/mL (≈ 0.172 µM); MIC [15]: 0.25 µg/mL (≈ 0.715 µM); MIC [23]: 0.06 µg/mL (≈ 0.172 µM); MIC [24]: 0.12 µg/mL (≈ 0.343 µM); MIC [25]: 0.06 µg/mL (≈ 0.172 µM)
Cc1nnc(SCC2=C(C(=O)O)N3C(=O)[C@@H](NC(=O)Cn4cnnn4)[C@H]3SC2)s1 [CEFAZOLIN]	0.25 (≈ 0.55 µM)	0.25 (≈ 0.55 µM)	16 (≈ 35.2 µM)	0.5 (≈ 1.1 µM)	0.25 (≈ 0.55 µM)	0.25 (≈ 0.55 µM)	0.25 (≈ 0.55 µM)	0.25 (≈ 0.55 µM)	0.5 (≈ 1.1 µM)	0.5 (≈ 1.1 µM)	0.25 (≈ 0.55 µM)	0.5 (≈ 1.1 µM)	2 (≈ 4.4 µM)	1 (≈ 2.2 µM)	1 (≈ 2.2 µM)	0.5 (≈ 1.1 µM)	0.5 (≈ 1.1 µM)	0.25 (≈ 0.55 µM)	0.25 (≈ 0.55 µM)	0.25 (≈ 0.55 µM)	MIC [10]: 0.12 µg/mL (≈ 0.264 µM); MIC [15]: 0.5 µg/mL (≈ 1.1 µM); MIC [23]: 0.5 µg/mL (≈ 1.1 µM); MIC [24]: 1 µg/mL (≈ 2.2 µM); MIC [25]: 2 µg/mL (≈ 4.4 µM)
CO/N=C(\C(=O)N[C@@H]1C(=O)N2C(C(=O)O)=C(COC(C)=O)CS[C@H]12)c1csc(N)n1 [CEFOTAXIME]	0.06 (≈ 0.132 µM)	0.06 (≈ 0.132 µM)	0.25 (≈ 0.549 µM)	0.12 (≈ 0.263 µM)	0.12 (≈ 0.263 µM)	0.06 (≈ 0.132 µM)	0.12 (≈ 0.263 µM)	0.12 (≈ 0.263 µM)	0.25 (≈ 0.549 µM)	0.06 (≈ 0.132 µM)	0.06 (≈ 0.132 µM)	0.25 (≈ 0.549 µM)	0.015 (≈ 0.0329 µM)	0.12 (≈ 0.263 µM)	0.25 (≈ 0.549 µM)	0.06 (≈ 0.132 µM)	0.12 (≈ 0.263 µM)	0.06 (≈ 0.132 µM)	0.12 (≈ 0.263 µM)	0.06 (≈ 0.132 µM)	MIC [10]: 0.06 µg/mL (≈ 0.132 µM); MIC [15]: 0.12 µg/mL (≈ 0.263 µM); MIC [23]: 0.25 µg/mL (≈ 0.549 µM); MIC [24]: 0.25 µg/mL (≈ 0.549 µM); MIC [25]: 0.03 µg/mL (≈ 0.0659 µM)
CO[C@@]1(NC(=O)Cc2cccs2)C(=O)N2C(C(=O)O)=C(COC(N)=O)CS[C@@H]21 [CEFOXITIN]	8 (≈ 18.7 µM)	8 (≈ 18.7 µM)	16 (≈ 37.4 µM)	16 (≈ 37.4 µM)	8 (≈ 18.7 µM)	8 (≈ 18.7 µM)	4 (≈ 9.36 µM)	8 (≈ 18.7 µM)	16 (≈ 37.4 µM)	4 (≈ 9.36 µM)	16 (≈ 37.4 µM)	8 (≈ 18.7 µM)	2 (≈ 4.68 µM)	16 (≈ 37.4 µM)	16 (≈ 37.4 µM)	4 (≈ 9.36 µM)	4 (≈ 9.36 µM)	8 (≈ 18.7 µM)	2 (≈ 4.68 µM)	8 (≈ 18.7 µM)	MIC [10]: 16 µg/mL (≈ 37.4 µM); MIC [15]: 4 µg/mL (≈ 9.36 µM); MIC [23]: 16 µg/mL (≈ 37.4 µM); MIC [24]: 16 µg/mL (≈ 37.4 µM); MIC [25]: 2 µg/mL (≈ 4.68 µM)
CO/N=C(\C(=O)N[C@@H]1C(=O)N2C(C(=O)O)=C(COC(N)=O)CS[C@H]12)c1ccco1 [CEFUROXIME]	0.06 (≈ 0.141 µM)	0.03 (≈ 0.0707 µM)	0.5 (≈ 1.18 µM)	0.12 (≈ 0.283 µM)	0.06 (≈ 0.141 µM)	0.06 (≈ 0.141 µM)	0.06 (≈ 0.141 µM)	0.12 (≈ 0.283 µM)	0.12 (≈ 0.283 µM)	0.06 (≈ 0.141 µM)	0.06 (≈ 0.141 µM)	0.06 (≈ 0.141 µM)	0.06 (≈ 0.141 µM)	0.12 (≈ 0.283 µM)	0.25 (≈ 0.589 µM)	0.06 (≈ 0.141 µM)	0.12 (≈ 0.283 µM)	0.06 (≈ 0.141 µM)	0.06 (≈ 0.141 µM)	0.06 (≈ 0.141 µM)	MIC [23]: 0.25 µg/mL (≈ 0.589 µM); MIC [24]: 0.12 µg/mL (≈ 0.283 µM); MIC [25]: 0.06 µg/mL (≈ 0.141 µM)
CC1(C)S[C@@H]2[C@H](NC(=O)Cc3ccccc3)C(=O)N2[C@H]1C(=O)O [PENICILLIN G]	0.06 (≈ 0.179 µM)	0.06 (≈ 0.179 µM)	0.12 (≈ 0.359 µM)	0.12 (≈ 0.359 µM)	0.06 (≈ 0.179 µM)	0.06 (≈ 0.179 µM)	0.06 (≈ 0.179 µM)	0.12 (≈ 0.359 µM)	0.12 (≈ 0.359 µM)	0.12 (≈ 0.359 µM)	0.06 (≈ 0.179 µM)	0.12 (≈ 0.359 µM)	0.015 (≈ 0.0449 µM)	0.12 (≈ 0.359 µM)	0.03 (≈ 0.0897 µM)	0.12 (≈ 0.359 µM)	0.12 (≈ 0.359 µM)	0.06 (≈ 0.179 µM)	0.06 (≈ 0.179 µM)	0.06 (≈ 0.179 µM)	MIC [10]: 0.03 µg/mL (≈ 0.0897 µM); MIC [15]: 0.12 µg/mL (≈ 0.359 µM); MIC [23]: 0.12 µg/mL (≈ 0.359 µM); MIC [24]: 0.12 µg/mL (≈ 0.359 µM); MIC [25]: 0.015 µg/mL (≈ 0.0449 µM)

Reference: ChEMBL document CHEMBL1275482, “Point mutation in the group B streptococcal pbp2x gene conferring decreased susceptibility to beta-lactam antibiotics” (2008)
